The structures appear in SMILES notation. pIC50: −log10 of the molar value. Bounds are passed on as bounds.

A short description of assay [1]: Antiproliferative activity against human KB/S cells assessed as reduction in cell growth after 72 hrs by MTT assay. Format: functional, cell-based. For orientation: Formazan colour is commonly taken as a measure of viable cells.
Assay [2] relates to KB/VJ300. Nature of the assay: Antiproliferative activity against human KB/VJ300 cells assessed as reduction in cell growth after 72 hrs by MTT assay. To be noted: KB/VJ300, 72 h. Format: functional, cell-based.
The next assay has as its system PC-3. Description: Antiproliferative activity against human PC3 cells assessed as reduction in cell growth after 72 hrs by MTT assay. To be noted: PC-3, 72 h. Format: functional, cell-based.
The next assay concerns MCF7. Nature of the assay: Antiproliferative activity against human MCF7 cells assessed as reduction in cell growth after 72 hrs by MTT assay. Type of assay: functional, cell-based. To be noted: MCF7, 72 h.
The subject of a further assay is MDA-MB-231. Description: Antiproliferative activity against human MDA-MB-231 cells assessed as reduction in cell growth after 72 hrs by MTT assay. Type of assay: functional, cell-based. To be noted: MDA-MB-231, 72 h.
For another assay, the system named is HT-29. Description: Antiproliferative activity against human HT-29 cells assessed as reduction in cell growth after 72 hrs by MTT assay. Format: functional, cell-based. To be noted: HT-29, 72 h.
The test system of a further assay is HCT-116. Description: Antiproliferative activity against human HCT116 cells assessed as reduction in cell growth after 72 hrs by MTT assay. Format: functional, cell-based. To be noted: HCT-116, 72 h.
Another assay concerns A549. Nature of the assay: Antiproliferative activity against human A549 cells assessed as reduction in cell growth after 72 hrs by MTT assay. Format: functional, cell-based. To be noted: A549, 72 h.
The test system of the next assay is CCD-18Co. Description: Cytotoxicity against human CCD-18Co cells assessed as reduction in cell growth after 72 hrs by MTT assay. Type of assay: cell-based.
For assay [3], the system named is KB/VJ300. Nature of the assay: Antiproliferative activity against human vincristine-rsistant KB/VJ300 cells assessed as reduction in cell growth after 72 hrs by MTT assay. Type of assay: functional, cell-based. To be noted: KB/VJ300, 72 h.
A further assay has as its system LNCaP. Nature of the assay: Antiproliferative activity against human LNCAP cells assessed as reduction in cell growth after 72 hrs by MTT assay. Type of assay: functional, cell-based.
The next assay relates to MRC5. Nature of the assay: Cytotoxicity against human MRC5 cells assessed as reduction in cell growth after 72 hrs by MTT assay. Type of assay: cell-based. To be noted: MRC5, 72 h.

Consider `C/C=C1/CN2[C@H]3C[C@@H]1[C@@H](CO)[C@@H]2Cc1c3n(C)c2cc(C[C@H]3[C@@H]4C[C@H]5c6c(c7ccccc7n6C)C[C@@H]([C@@H]4CO[C@]3(C)OC)N5C)c(OC)cc12`, for which the pIC50 in assay [1] is 5.62; in the assay with KB/VJ300 [2] it was 5.54; in the assay on PC-3 it was 5.51; in the assay with MCF7 it was 5.89; with MDA-MB-231, 5.85; in the assay with HT-29 it was 7.52. For the same molecule, the figures for the pIC50 in the assay with HCT-116, in the assay on A549 and in the assay with CCD-18Co were 5.54, 5.17 and 5.37, respectively.

On to `C/C=C1/CN2[C@H]3C[C@@H]1[C@@H](CO)[C@@H]2Cc1c3n(C)c2cc(C(C)C3=COC[C@@H]4[C@H]3C[C@H]3c5c(c6ccccc6n5C)C[C@@H]4N3C)c(OC)cc12` (stereo partly drawn), for which the pIC50 in assay [1] is 6.22; in the assay on KB/VJ300 [2] it was 5.17; with KB/VJ300 [3] it was 6.70; in the assay with PC-3, 5.09; in the assay on LNCaP it was 5.21; with MCF7 it was 5.35. Moreover, the pIC50 is 5.35 in the assay with MDA-MB-231; 6.52 in the assay on HT-29; under 5.00 in the assay with HCT-116; 5.15 in the assay with A549; 5.10 with MRC5.

Turning to `C/C=C1/CN2[C@H]3C[C@@H]1[C@@H](CO)[C@@H]2Cc1c3n(C)c2ccc(OC)c(CC3=C(C)OC[C@@H]4[C@H]3C[C@H]3c5c(c6ccccc6n5C)C[C@@H]4N3C)c12`, the pIC50 was 5.55 in [1]; 5.23 in the assay on KB/VJ300 [2]; 5.21 in the assay with PC-3; 5.70 with MCF7; 5.32 in the assay on MDA-MB-231; 7.15 in the assay on HT-29. Also, the pIC50 in the assay with HCT-116 is 5.38; with A549, 5.05; in the assay with CCD-18Co, 5.01.

`C/C=C1/CN2[C@H]3C[C@@H]1[C@@H](CO)[C@@H]2Cc1c3n(C)c2cc(C[C@@H]3[C@@H]4C[C@H]5c6c(c7ccccc7n6C)C[C@@H]([C@@H]4CO[C@]3(C)OC)N5C)c(OC)cc12`: the pIC50 in assay [1] is 5.96; with KB/VJ300 [2] it was under 5.00; in the assay on KB/VJ300 [3] it was 5.41; in the assay on PC-3, under 5.00; in the assay with LNCaP it was 5.43; in the assay with MCF7, 5.28. Further, the pIC50 in the assay with MDA-MB-231 is 5.32; in the assay on HT-29, 7.15; in the assay on HCT-116, under 5.00; in the assay with A549 it was under 5.00; in the assay on MRC5, under 5.00.

Consider `C/C=C1/CN2[C@H]3C[C@@H]1[C@@H](CO)[C@@H]2Cc1c3n(C)c2ccc(OC)c(C[C@@H](C(C)=O)[C@@H]3C[C@H]4c5c(c6ccccc6n5C)C[C@@H]([C@@H]3CO)N4C)c12`, for which the pIC50 in assay [1] was 5.60; with KB/VJ300 [2], 5.26; with KB/VJ300 [3] it was 5.06; in the assay on PC-3 it was under 5.00; in the assay on MCF7, 5.11; with MDA-MB-231 it was 5.39. For the same molecule, the pIC50 with HT-29 was 7.52; in the assay on HCT-116 it was 5.82; with A549, 5.41; with CCD-18Co, 5.39.

As to `C/C=C1/CN2[C@H]3C[C@@H]1[C@@H](CO)[C@@H]2Cc1c3n(C)c2cc(C[C@@H](C(C)=O)[C@@H]3C[C@H]4c5c(c6ccccc6n5C)C[C@@H]([C@@H]3CO)N4C)c(OC)cc12`, the pIC50 in [1] was 5.77; with KB/VJ300 [2], 5.44; in the assay on KB/VJ300 [3], 5.38; in the assay on PC-3, under 5.00; in the assay with MCF7, 5.07; in the assay on MDA-MB-231 it was under 5.00. For the same molecule, the pIC50 with HT-29 was 7.70; with HCT-116 it was 5.68; in the assay on A549, 5.52; in the assay on CCD-18Co, 5.29.

For the molecule `COc1ccc(CCN(C)CCCC(C#N)(c2ccc(OC)c(OC)c2)C(C)C)cc1OC` (stereo not drawn) [VERAPAMIL], in the assay on KB/VJ300 [3], the pIC50 was 6.40.

With `CC[C@]1(O)C[C@H]2CN(CCc3c([nH]c4ccccc34)[C@@](C(=O)OC)(c3cc4c(cc3OC)N(C=O)[C@H]3[C@@](O)(C(=O)OC)[C@H](OC(C)=O)[C@]5(CC)C=CCN6CC[C@]43[C@@H]65)C2)C1` [VINCRISTINE], the figures for the pIC50 (in assay [1]; in the assay with KB/VJ300 [2]) were 9.10 and 6.10, respectively.

As a reminder, the pIC50 is the IC50 on a negative log10 scale, so that one unit is a factor of ten.

The values are drawn from ChEMBL document CHEMBL4414629, “Macroline-Sarpagine Bisindole Alkaloids with Antiproliferative Activity from Alstonia penangiana” (J Nat Prod, 2019).
